# Active and inactive are the calls of the source.
# Columns and labels:
# [1] = tested on: H9c2; assay: cells; type: functional, cell-based; conditions: Rattus norvegicus, H9c2, Myocardium;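 note: confirmatory concentration-response retest of ultra-high-throughput screening hits for modulation of myocardial damage; cell death induced by hydrogen peroxide oxidative stress; compound pretreatment for 60 min then peroxide exposure for 2 h; potency is for protecting the cells against peroxide damage rather than for killing them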
# [2] = inhibitors of PGC1a acetylation in cells, dose response, cell-based, cherry-picked samples (AID 720514); type: functional;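 note: potency may reflect raised or lowered acetylation signal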
# [3] = molecular target: T1, Cytochrome P450 3A4 (Homo sapiens, UniProt P08684); conditions: Potency
# [4] = molecular target: 26S proteasome non-ATPase regulatory subunit 14 (Homo sapiens, UniProt O00487); assay: inhibition of proteasome subunit RPN11 – biochemical, fluorescence polarization, uHTS hits, confirmation (AID 602368); type: functional
# [5] = molecular target: Prothrombin (Bos taurus, UniProt P00735); assay: thrombin inhibition, dose response, biochemical, fluorescence polarization, uHTS hits (AID 602369); type: functional
# [6] = molecular target: 72 kDa type IV collagenase (Homo sapiens, UniProt P08253); assay: Dose Response validation of uHTS RPN11 inhibitor hits using a MMP-2 Fluorescence assay.; type: functional
# [7] = molecular target: Prothrombin (Homo sapiens, UniProt P00734); assay: Thrombin 1536 HTS Dose Response Confirmation. [Related pubchem assays: 1046 (Thrombin 1536 HTS; hits were confirmed in this assay)]; type: functional
# [8] = molecular target: Nonstructural protein 1 (Influenza A virus, UniProt Q194T2); type: functional, Influenza A virus (A/California/07/2009(H1N1))
# [9] = molecular target: Cytochrome P450 2C9 (Homo sapiens, UniProt P11712)
# [10] = molecular target: T2, Cytochrome P450 1A2 (Homo sapiens, UniProt P05177);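 note: PubChem cytochrome P450 panel assay, CYP1A2 panel member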
# T2 sequence (P05177 whole entry): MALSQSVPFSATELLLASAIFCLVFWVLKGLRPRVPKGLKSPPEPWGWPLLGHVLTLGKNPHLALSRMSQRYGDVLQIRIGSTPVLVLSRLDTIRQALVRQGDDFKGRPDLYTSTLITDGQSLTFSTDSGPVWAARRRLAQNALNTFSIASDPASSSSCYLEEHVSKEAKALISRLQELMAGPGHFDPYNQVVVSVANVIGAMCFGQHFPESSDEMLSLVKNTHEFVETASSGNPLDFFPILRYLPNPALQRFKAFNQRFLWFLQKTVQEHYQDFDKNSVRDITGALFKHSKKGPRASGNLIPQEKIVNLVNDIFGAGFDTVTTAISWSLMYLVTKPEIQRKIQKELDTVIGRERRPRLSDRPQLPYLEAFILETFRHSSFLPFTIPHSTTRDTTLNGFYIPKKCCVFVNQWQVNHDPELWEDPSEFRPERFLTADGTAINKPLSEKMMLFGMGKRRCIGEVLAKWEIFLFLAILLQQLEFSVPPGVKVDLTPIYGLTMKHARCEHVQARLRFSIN
# [11] = molecular target: Eukaryotic translation initiation factor 4E (Mus musculus, UniProt P63073); assay: eIF4E–eIF4G protein interaction inhibitors, dose response, biochemical, TR-FRET (AID 855); type: functional;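 note: potency for disrupting eIF4E binding to eIF4GI seen as loss of FRET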
# [12] = molecular target: T1, Cytochrome P450 3A4
# [13] = growth suppression of beta-catenin-knockout colon cells, dose response, cell-based, HCT116, human colon tumor (AID 1045); type: functional;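 note: HCT116 colon tumor cells with beta catenin knocked out; cells exposed to compound for 60 hours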
# [14] = growth suppression of PTEN-null colon cells, dose response, cell-based, HCT116 PTEN knockout (AID 1047); type: functional;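 note: HCT116 colon tumor cells with PTEN knocked out; cells exposed to compound for 60 hours before readout; potency for loss of cell viability measured by luminescence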
# [15] = molecular target: Genome polyprotein (dengue virus type 2, UniProt P29990); assay: Dengue-2 NS5 methyltransferase inhibitors, primary screen, biochemical, confirmation dose response (AID 588689); type: functional
# [16] = molecular target: T3, Voltage-gated N-type calcium channel alpha-1B subunit/Amyloid beta A4 precursor protein-binding family A member 1 (Homo sapiens, UniProt Q00975+Q02410); type: protein assay
# [17] = molecular target: T3, Voltage-gated N-type calcium channel alpha-1B subunit/Amyloid beta A4 precursor protein-binding family A member 1; type: protein assay; remark: listed apart in the source
# [18] = molecular target: T4, Rac GTPase-activating protein 1 (Homo sapiens, UniProt Q9H0H5); assay: MgcRacGAP GTPase-activating activity inhibitors, confirmation, biochemical, ADP Hunter fluorescence, primary and confirmatory (AID 624330); type: functional
# T4 sequence (Q9H0H5 whole entry): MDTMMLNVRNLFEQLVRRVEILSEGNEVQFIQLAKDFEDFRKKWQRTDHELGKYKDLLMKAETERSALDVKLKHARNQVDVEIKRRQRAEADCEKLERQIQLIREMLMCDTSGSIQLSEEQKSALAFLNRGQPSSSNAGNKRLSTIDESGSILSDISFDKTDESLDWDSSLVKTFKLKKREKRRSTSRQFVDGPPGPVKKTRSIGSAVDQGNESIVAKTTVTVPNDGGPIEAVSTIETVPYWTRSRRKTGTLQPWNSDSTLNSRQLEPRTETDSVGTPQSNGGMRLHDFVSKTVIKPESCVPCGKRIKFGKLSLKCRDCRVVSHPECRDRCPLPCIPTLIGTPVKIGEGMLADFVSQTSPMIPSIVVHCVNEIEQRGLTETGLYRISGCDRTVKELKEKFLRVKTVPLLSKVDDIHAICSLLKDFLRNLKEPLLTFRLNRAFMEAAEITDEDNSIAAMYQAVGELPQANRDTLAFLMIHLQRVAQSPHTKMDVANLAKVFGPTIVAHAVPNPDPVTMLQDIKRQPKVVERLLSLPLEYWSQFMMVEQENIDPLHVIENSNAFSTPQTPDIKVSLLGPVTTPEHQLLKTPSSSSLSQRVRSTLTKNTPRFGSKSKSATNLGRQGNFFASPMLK
# [19] = molecular target: DNA dC->dU-editing enzyme APOBEC-3G (Homo sapiens, UniProt Q9HC16); assay: Dose Response confirmation of small molecule APOBEC3G DNA Deaminase Inhibitors via a fluorescence-based single-stranded DNA deaminase assay. [Related pubchem assays (depositor defined):AID493012, AID493028]; type: functional
# [20] = molecular target: Large T antigen (Simian virus 40, UniProt P03070); type: functional, Betapolyomavirus macacae;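 note: Confirmatory-stage PubChem screen for compounds that inhibit SV40 T antigen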
# [21] = molecular target: T5, Heat shock factor protein 1 (Mus musculus, UniProt P38532); assay: inhibition of MG132-induced HSE-luciferase signal, confirmation, cell-based, NIH3T3, luminescence, dose retest (AID 2382); type: functional;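 note: NIH3T3 fibroblasts with HSF1-driven luciferase reporter stressed by proteasome inhibitor MG132; luminescence from HSF1-driven luciferase expression after 8 hours of MG132 stress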
# T5 sequence (P38532 whole entry): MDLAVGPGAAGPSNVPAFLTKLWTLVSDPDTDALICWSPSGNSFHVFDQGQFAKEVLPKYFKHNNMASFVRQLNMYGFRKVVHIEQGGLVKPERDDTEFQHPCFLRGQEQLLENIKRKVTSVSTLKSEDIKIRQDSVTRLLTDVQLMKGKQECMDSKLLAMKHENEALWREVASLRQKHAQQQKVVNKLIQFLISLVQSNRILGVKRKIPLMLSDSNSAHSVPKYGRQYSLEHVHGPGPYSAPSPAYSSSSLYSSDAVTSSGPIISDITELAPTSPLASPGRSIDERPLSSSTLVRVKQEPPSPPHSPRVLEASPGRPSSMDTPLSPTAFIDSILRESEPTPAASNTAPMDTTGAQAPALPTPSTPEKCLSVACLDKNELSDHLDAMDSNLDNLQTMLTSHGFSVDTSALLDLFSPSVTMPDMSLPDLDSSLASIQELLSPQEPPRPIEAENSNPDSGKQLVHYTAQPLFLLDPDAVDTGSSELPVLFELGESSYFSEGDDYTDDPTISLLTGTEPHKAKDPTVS
# [22] = molecular target: Alkaline phosphatase, placental type (Homo sapiens, UniProt P05187); assay: PLAP enzyme inhibitors, confirmation, biochemical, luminescence (AID 1512); type: functional
# [23] = tested on: HEK293; assay: cells; type: functional, cell-based; conditions: Homo sapiens
# [24] = molecular target: T6, Calpain-2 catalytic subunit (Sus scrofa, UniProt P43367); assay: pig calpain II inhibitor potency, dose response, biochemical, fluorogenic peptide substrate (AID 1420); type: functional
# T6 sequence (P43367 whole entry): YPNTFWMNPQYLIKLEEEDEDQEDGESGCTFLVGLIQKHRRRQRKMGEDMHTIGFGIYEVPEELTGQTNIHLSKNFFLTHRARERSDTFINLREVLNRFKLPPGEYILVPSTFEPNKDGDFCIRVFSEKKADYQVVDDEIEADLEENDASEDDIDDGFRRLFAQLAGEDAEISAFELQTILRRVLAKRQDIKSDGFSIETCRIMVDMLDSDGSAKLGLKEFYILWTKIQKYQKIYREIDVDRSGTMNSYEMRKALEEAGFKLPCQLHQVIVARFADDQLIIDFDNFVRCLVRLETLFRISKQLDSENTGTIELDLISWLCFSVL
# [25] = tested on: HEK293; assay: NOD2 signaling inhibitors in MDP-stimulated cells, cell-based, uHTS, luminescence (AID 2001); type: functional; conditions: Homo sapiens
# [26] = tested on: HEK293; assay: cells; type: functional, cell-based; conditions: Homo sapiens; remark: listed apart in the source
# [27] = tested on: HEK293; assay: cells; type: functional, cell-based; conditions: Homo sapiens; remark: listed apart in the source
# [28] = molecular target: Nucleotide-binding oligomerization domain-containing protein 2 (Homo sapiens, UniProt Q9HC29); assay: NOD2 signaling inhibitors, cell-based, luminescence, uHTS, HEK293 (AID 1566); type: functional
# [29] = tested on: HEK293; assay: NOD1 signaling inhibitors, primary screen, cell-based, luminescence, uHTS (AID 1578); type: functional; conditions: Homo sapiens
# [30] = molecular target: Glyceraldehyde-3-phosphate dehydrogenase (Homo sapiens, UniProt P04406)
# 26S proteasome non-ATPase regulatory subunit 14, sequence (O00487 whole entry): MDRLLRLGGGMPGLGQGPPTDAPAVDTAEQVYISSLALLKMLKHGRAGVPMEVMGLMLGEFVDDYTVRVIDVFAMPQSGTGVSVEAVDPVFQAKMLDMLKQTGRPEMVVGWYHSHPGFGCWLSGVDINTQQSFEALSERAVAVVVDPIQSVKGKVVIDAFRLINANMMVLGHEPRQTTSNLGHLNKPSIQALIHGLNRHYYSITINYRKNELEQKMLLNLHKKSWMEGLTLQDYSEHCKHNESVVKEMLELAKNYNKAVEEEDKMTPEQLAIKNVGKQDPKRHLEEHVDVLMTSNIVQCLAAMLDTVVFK
# T3 sequence (Q00975 whole entry): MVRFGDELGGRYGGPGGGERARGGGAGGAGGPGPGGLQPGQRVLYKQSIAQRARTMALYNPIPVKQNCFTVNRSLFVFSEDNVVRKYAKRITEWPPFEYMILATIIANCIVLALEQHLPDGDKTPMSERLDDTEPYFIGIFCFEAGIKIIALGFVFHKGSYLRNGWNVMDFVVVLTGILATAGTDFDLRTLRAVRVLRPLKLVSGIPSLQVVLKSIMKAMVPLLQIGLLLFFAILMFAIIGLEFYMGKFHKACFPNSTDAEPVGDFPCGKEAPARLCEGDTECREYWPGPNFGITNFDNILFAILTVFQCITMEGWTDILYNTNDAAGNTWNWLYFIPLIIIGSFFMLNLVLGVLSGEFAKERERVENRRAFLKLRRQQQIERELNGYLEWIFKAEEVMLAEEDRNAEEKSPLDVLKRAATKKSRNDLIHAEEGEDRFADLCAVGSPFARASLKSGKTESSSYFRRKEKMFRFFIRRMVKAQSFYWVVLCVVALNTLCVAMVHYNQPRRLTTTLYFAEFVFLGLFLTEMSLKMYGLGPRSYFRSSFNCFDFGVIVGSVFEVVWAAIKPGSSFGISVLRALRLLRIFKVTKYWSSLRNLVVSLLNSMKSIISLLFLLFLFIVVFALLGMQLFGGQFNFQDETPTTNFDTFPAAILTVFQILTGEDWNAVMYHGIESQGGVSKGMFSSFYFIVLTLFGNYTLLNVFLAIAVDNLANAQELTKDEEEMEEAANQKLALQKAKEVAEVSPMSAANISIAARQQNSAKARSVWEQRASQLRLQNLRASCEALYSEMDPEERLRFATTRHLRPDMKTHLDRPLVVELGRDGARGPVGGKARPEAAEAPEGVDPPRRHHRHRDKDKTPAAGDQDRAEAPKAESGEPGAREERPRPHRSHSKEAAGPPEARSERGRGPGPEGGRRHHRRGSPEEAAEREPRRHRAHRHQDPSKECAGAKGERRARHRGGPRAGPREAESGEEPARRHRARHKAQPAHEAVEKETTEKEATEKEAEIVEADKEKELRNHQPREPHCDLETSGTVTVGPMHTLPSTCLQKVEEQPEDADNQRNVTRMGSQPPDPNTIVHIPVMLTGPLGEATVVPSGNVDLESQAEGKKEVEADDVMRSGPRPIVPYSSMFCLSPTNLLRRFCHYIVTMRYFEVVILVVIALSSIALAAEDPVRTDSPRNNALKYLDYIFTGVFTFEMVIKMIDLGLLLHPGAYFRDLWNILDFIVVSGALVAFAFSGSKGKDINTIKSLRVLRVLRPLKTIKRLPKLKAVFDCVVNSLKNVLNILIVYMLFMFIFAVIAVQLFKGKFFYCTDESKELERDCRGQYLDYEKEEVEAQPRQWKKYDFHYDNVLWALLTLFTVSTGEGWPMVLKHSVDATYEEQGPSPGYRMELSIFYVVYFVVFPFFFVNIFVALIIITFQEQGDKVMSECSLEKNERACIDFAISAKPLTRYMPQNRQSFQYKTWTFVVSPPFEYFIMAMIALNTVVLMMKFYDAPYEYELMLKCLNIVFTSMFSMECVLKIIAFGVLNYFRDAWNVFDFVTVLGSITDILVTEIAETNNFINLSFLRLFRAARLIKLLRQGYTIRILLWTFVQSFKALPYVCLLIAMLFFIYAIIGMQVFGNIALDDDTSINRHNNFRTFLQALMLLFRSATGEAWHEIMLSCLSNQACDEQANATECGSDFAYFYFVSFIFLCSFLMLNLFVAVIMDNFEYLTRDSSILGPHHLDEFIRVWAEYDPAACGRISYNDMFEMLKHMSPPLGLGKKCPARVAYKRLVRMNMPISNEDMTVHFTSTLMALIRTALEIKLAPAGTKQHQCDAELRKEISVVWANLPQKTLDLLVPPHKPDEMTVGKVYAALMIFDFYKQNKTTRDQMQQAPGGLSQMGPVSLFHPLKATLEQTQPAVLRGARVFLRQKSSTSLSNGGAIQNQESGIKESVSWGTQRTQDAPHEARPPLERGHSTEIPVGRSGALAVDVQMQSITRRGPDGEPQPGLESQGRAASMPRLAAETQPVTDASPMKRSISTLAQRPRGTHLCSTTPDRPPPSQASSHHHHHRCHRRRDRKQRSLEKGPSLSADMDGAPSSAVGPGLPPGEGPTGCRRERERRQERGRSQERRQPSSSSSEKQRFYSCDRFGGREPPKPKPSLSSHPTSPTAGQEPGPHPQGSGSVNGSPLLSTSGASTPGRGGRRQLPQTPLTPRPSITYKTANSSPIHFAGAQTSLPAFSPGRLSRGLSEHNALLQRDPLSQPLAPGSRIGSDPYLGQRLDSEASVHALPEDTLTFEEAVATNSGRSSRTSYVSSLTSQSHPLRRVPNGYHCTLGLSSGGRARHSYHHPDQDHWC
# T3 sequence (Q02410 whole entry): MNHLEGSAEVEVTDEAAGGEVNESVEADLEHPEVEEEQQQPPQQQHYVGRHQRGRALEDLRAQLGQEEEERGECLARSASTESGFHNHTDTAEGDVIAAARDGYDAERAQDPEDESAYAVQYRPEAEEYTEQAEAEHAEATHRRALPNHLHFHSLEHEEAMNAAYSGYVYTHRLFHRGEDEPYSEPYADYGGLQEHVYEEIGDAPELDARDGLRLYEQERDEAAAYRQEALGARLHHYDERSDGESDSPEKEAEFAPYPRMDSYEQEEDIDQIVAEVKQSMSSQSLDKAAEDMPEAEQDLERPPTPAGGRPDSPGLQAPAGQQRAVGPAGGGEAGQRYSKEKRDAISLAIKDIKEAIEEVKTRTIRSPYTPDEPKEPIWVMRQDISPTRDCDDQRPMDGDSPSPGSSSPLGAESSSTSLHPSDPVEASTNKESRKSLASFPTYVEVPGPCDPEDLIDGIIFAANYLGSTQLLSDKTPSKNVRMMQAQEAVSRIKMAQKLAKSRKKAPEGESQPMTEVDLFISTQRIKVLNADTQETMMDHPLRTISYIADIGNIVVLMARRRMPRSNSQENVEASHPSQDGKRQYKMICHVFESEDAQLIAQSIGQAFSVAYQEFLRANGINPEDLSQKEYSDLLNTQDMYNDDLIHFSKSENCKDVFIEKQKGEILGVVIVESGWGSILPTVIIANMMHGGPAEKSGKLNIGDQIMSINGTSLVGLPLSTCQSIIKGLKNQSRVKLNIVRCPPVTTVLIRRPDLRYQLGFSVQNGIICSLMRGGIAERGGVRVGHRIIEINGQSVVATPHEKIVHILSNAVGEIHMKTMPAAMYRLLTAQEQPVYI
# 72 kDa type IV collagenase, sequence (P08253 whole entry): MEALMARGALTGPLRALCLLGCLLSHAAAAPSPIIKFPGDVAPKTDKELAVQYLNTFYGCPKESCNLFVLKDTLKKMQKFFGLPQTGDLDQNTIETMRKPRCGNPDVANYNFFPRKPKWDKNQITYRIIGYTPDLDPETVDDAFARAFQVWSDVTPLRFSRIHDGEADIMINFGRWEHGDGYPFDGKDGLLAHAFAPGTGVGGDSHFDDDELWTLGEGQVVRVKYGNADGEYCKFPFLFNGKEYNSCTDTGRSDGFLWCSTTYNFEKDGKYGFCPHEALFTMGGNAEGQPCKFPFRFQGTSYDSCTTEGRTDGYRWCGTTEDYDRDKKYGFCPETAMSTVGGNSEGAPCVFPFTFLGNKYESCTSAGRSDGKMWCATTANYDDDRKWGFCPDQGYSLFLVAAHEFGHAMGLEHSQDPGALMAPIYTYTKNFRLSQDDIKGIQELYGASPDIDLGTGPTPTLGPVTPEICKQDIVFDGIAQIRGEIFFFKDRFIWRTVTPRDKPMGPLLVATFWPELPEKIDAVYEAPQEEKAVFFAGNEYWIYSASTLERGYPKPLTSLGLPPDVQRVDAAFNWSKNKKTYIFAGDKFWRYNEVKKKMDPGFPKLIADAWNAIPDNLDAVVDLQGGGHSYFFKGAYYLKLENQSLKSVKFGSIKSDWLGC
# T1 sequence (P08684 whole entry): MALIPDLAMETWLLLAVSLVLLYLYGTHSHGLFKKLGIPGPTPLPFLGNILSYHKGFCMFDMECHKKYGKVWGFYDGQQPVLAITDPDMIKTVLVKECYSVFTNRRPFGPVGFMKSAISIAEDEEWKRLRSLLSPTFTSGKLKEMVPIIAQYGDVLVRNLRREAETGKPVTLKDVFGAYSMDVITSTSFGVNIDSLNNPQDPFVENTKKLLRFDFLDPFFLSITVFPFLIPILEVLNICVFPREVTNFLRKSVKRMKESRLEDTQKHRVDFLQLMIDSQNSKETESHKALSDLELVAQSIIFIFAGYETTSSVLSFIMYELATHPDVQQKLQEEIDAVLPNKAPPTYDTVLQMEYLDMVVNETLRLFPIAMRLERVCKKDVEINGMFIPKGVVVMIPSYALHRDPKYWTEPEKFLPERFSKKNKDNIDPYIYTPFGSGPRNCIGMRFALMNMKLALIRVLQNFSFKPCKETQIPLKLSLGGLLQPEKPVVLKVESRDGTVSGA
# Eukaryotic translation initiation factor 4E, sequence (P63073 whole entry): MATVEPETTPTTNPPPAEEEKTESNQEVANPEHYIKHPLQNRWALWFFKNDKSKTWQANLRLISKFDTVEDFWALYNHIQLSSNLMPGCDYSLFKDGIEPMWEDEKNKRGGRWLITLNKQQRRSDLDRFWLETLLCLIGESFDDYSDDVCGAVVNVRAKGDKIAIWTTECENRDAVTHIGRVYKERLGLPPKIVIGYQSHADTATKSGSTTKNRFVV
smiles,measurement,setting,value
O=[N+]([O-])c1cc(-c2nnc(O)c3ccccc23)ccc1NCCCO,IC50,[1],16.3 µM (active)
same,AC50,[2],25 µM (active)
CC(CCC(=O)O)(c1ccc(O)cc1)c1ccc(O)cc1,AC50,[3],39.8 µM (inconclusive)
CCOC(=O)C1CCN(C(=O)CCc2nc3sc4c(c3c(=O)[nH]2)CCCC4)CC1,IC50,[4],31.6 µM (active)
same,IC50,[5],36.5 µM (active)
same,IC50,[6],> 100 µM (inactive)
O=c1c(O)c(-c2ccc(O)c(O)c2)oc2c(OC3OC(CO)C(O)C(O)C3O)c(O)cc(O)c12 (stereo unspecified),AC50,[3],39.8 µM (inconclusive)
Cc1nc(NCCc2ccccc2F)c(C#N)c(C)c1[N+](=O)[O-],IC50,[7],> 50 µM (not active)
COC1=C(Nc2ccc(C)cc2)C(=O)c2ccccc2C1=O,IC50,[8],10 µM (active)
Cc1ccc(SCc2cc(=O)[nH]c(NC(N)=Nc3ccc(C)c(C)c3)n2)cc1,AC50,[9],2.24 µM (inconclusive)
same,AC50,[10],5.62 µM (inconclusive)
same,IC50,[11],> 64 µM (inactive)
same,AC50,[12],7.08 µM (inconclusive)
O=C(Nc1ccc(F)cc1)Nc1nnc(-c2ccncc2)s1,EC50,[13],25.9 µM (active)
same,IC50,[4],23.2 µM (active)
same,IC50,[5],65.5 µM (active)
same,EC50,[14],22.4 µM (active)
same,IC50,[6],> 100 µM (inactive)
N#Cc1ccccc1NC(=O)COC(=O)COc1ccccc1[N+](=O)[O-],IC50,[7],9.18 µM (active)
O=C(O)CCCNC(=O)/C=C/c1ccco1,IC50,[15],> 100 µM (active)
same,IC50,[16],17.1 µM (active)
same,IC50,[17],13.6 µM (active)
same,IC50,[18],151 µM (active)
COc1ccc(Oc2c(Cl)cnn(-c3ccccc3)c2=O)cc1,AC50,[2],19.7 µM (active)
same,AC50,[9],11.2 µM (inconclusive)
CCOc1cc(C(=S)N2CCOCC2)ccc1O,IC50,[19],42.8 µM (active)
same,IC50,[11],> 64 µM (inactive)
COc1cc(/C=C2\N=C3CCCCCN3C2=O)ccc1O,IC50,[4],14.8 µM (active)
same,IC50,[5],29.7 µM (active)
same,IC50,[6],> 100 µM (inactive)
same,IC50,[20],9.11 µM (active)
CCc1c(C)sc(NC(=O)C2CCCCC2C(=O)O)c1C(N)=O (stereo unspecified),IC50,[11],> 64 µM (inactive)
CC(Oc1ccccc1)C(=O)NC1C(=O)N2C(C(=O)O)C(C)(C)S[C@@H]12 (stereo partly specified),AC50,[3],0.251 µM (inconclusive)
COc1ccccc1NC(=O)CSc1nn2c(=O)c(C)nnc2s1,IC50,[8],16.1 µM (active)
NS(=O)(=O)c1ccc(CCNC(=O)/C=C/c2ccc([N+](=O)[O-])cc2)cc1,IC50,[16],9.65 µM (active)
same,IC50,[17],> 50 µM (inactive)
c1ccc(-n2nnc3cnccc32)cc1,IC50,[11],> 64 µM (inactive)
O=C(c1cccs1)n1nc(-c2ccco2)nc1SCc1ccccc1,IC50,[7],1.48 µM (active)
same,EC50,[21],> 195 µM (not active)
O=C(NC1(C(F)(F)F)Oc2ccc(Cl)cc2O1)N1CCC2(CC1)OCCO2 (stereo unspecified),IC50,[22],9.93 µM (active)
O=C(C1CC1)N1C[C@@H]2N[C@H](C1)[C@@H]2c1ccc(/C=C/c2ccccc2)cc1,AC50,[2],32.3 µM (active)
CCN1C(C)=C(C(=O)OC)C(c2ccccc2)N2C(=O)[C@@]3(C(=O)OC)O[C@@]12C1C(=O)CCCC13 (stereo partly specified),AC50,[3],3.98 µM (inconclusive)
COc1cc([N+](=O)[O-])ccc1-c1ccc(/C=N/NC(=O)c2ccccc2O)o1,IC50,[23],> 20 µM (inactive)
same,IC50,[24],8.3 µM (not active)
same,IC50,[25],14.1 µM (inactive)
same,IC50,[26],19.9 µM (active)
same,IC50,[27],> 20 µM (inactive)
same,EC50,[28],> 20 µM (inactive)
same,EC50,[29],> 20 µM (inactive)
O=C(NCCO)c1cc(-c2cc(F)c(Cl)cc2Cl)n[nH]1,IC50,[22],> 25 µM (inactive)
same,IC50,[30],> 100 µM (not active)

# — ChEMBL document CHEMBL1201862, “PubChem BioAssay data set” (2004)
